Source: a melting point compilation (Tetko et al.; mined from patent text by program, amines drawn as free bases though some values may be those of a salt)

Structure (SMILES) | melting point [°C]
CCCCc1cc2ccccc2c(Oc2ccc(/C=C/C(=O)O)cc2)c1-c1ccc(OC)cc1 | 186 to 187
O=C1c2ccccc2C(=O)N1CCCCc1ccccc1 | 87 to 90
O=Cc1ccc(Oc2ccc(F)cc2)cc1 | 69 to 73
O=C1CCC2C=C(c3cccnc3)C=C(F)C2N1 (stereo unspecified) | 203
CCOc1ccc(S(=O)(=O)N2c3ccc(Cl)cc3C(O)(c3ccccc3Cl)C2C(=O)N(C)CC(=O)OC)cc1 (stereo unspecified) | 168 to 171
Cc1c(C)c2c(c(C)c1O)CC[C@@](C)(CCO)O2 | 155
Cc1nc(N(C)Cc2ccco2)c2nc(-c3ccccc3)cc-2[nH]1 | 168 to 169
CCCn1c(CCO)nc(C(C)C)c1Sc1cc(Cl)cc(Cl)c1 | 88 to 89
COC(=O)/C=C/Cn1c(=O)c2cc(C(=O)NCc3ccc(OC)cc3)sc2n(C)c1=O | 169 to 171
Nc1nc2cc(Cl)c(Cl)cc2nc1-c1cccs1 | 235 to 237
Cc1ccc(-n2nc(C(C)(C)C)cc2NC(=O)NCc2ccccc2Oc2ccnc(N3CCN(C)CC3)n2)cc1 | 150
CCCCNc1c(C(=O)OCC)cnc2[nH]ncc12 | 181
CC(C)O[Si](C)(C)C[C@](O)(c1ccc(F)cc1F)[C@@H](C)n1ncn(-c2ccc(OCC(F)(F)C(F)F)cc2)c1=O | 125 to 126
C/C(C=O)=C\COc1cccc2ccccc12 | 81.5 to 82.5
CC(C)n1c(=O)on(C(=O)n2oc(=O)n(C(C)C)c2=O)c1=O | 150
O=C(O)c1cc(NS(=O)(=O)c2ccc([N+](=O)[O-])cc2)ccc1O | 239 to 240
CC1(C)CCC(C)(C)C2=C1CC(C(=O)O)C2 | 125 to 129
COC(=O)c1ccsc1COc1ccc(CCCCO)cc1 | 58 to 60
CNC(=O)C(=NOC)c1ccccn1 | 132 to 133
O=C1c2ccccc2C(=O)c2c(NC3CCCCC3)cccc21 | 145
O=c1n(CCCCN2CCN(c3cccc(Cl)c3)CC2)nc2ccccn12 | 122 to 123
Cc1nc(-n2ccc(C3CC3)cc2=O)sc1C(=O)NCc1ccccc1 | 149 to 151
Cc1cc2cnnc(Cl)c2n1CC(C)C | 96 to 99
O=C(c1ccccc1)N1CCNc2ncc(I)cc21 | 164 to 166
CN(C)Cc1ccc2cc(NC(=O)c3ccc(-c4ccc(Cl)cc4)cc3)ccc2n1 | 219 to 221
CCC1(CCCCCl)C(=O)Nc2ccc(C)cc21 (stereo unspecified) | 79 to 80

Structure (SMILES) | melting point [°C]
Fc1ccc(-c2ncn(CCCCl)c2-c2ccncc2)cc1 | 139 to 140
COc1cc2c(cc1Br)C=C(C)N(C(=O)C1CC1)N=C2c1ccc(N)cc1 | 224 to 226
CC(=O)Nc1nc(S(=O)(=O)Cl)n[nH]1 | 177
COc1cc2ncc3c(N)nc(C)cc3c2cc1OC | 244 to 248
CC(C)Oc1c(C(N)=O)oc2ccc(OCc3ccccc3)cc12 | 158 to 160
O=C(Nc1cc(C(F)(F)F)ccc1N1CCCCCC1)c1ccncc1 | 138 to 139
COc1ccccc1N1CCN([C@@H]2Cc3cccc(O)c3C[C@H]2O)CC1 (relative stereo) | 199 to 201
CCOC(=O)/C(CC(=O)O)=C(\c1ccc(Cl)cc1)c1ccc(S(C)(=O)=O)cc1 | 40 to 42
COC(=O)N1CCc2onc(OC)c2C1 | 58 to 60
O=C(NC1CCN(CCCCl)CC1)c1ccccc1 | 145 to 147
O=C(O)CCn1cc(Br)c2c3c(c(-c4ccccc4Cl)cc21)C(=O)NC3=O | 182 to 186
CC(=O)CC1(C)C=NC=CN1c1ccccc1 (stereo unspecified) | 67 to 68
c1cncc(CSc2nnc(-c3ccc4c(c3)CCO4)o2)c1 | 118 to 122
CC(C)(C)NC(=O)CC(Cc1cccc2ccccc12)C(=O)O (stereo unspecified) | 188 to 190
O=C(O)CCCc1cc2cc(Cl)ccc2n1S(=O)(=O)c1ccc2c(c1)CNCC2 | > 250
CCn1nc2oc(C=CC(N)=O)c(C)c2c1C | 258 to 260
CC(C)n1nc(-c2sc(C(=O)NC3CC3)nc2-c2ccccc2)ccc1=O | 127 to 128
CCCc1nc2c(N)nc3ccccc3c2n1CCCCCC(C)=O | 161 to 163
CCCCCc1ccc(OC(=O)c2ccc(O)cc2Cl)cc1 | 149 to 151
OCCCOc1ccc(-n2nc(-c3ccccc3)c3cccnc32)cc1 | 135 to 138
CCOC(=O)c1cn(C2CC2)c2cc(-c3cc(C)nc(CO)c3)c(F)cc2c1=O | 240
Cn1nnnc1CC(=O)c1ccc(Br)cc1N | 159 to 160
CC(C)(C)OC(=O)NCCCn1c(-c2ccc([N+](=O)[O-])cc2)csc1=Nc1ccccc1 | 254 to 257
O=C(O)c1ccc(C=C2CCN(C(=O)c3ccc(Cl)cc3)CC2)c(F)c1 | 170 to 173
C#Cc1cc2ncc(C#N)c(Nc3cc(OC)c(Cl)cc3Cl)c2s1 | 198 to 200
FC1=CC(c2cccnc2)=CC2CCC(=S)NC12 (stereo unspecified) | 235

Structure (SMILES) | melting point [°C]
CCOC(=O)c1cc(=O)c2cccc(Br)c2o1 | 124 to 126
N#CCCC=C(c1ccccc1)c1ccccc1 | 64 to 66
O=C(N[C@@H]1CCC[C@H]1O)C(O)=CC(=O)c1cc(Cc2ccc(F)cc2)cn(Cc2ccccc2F)c1=O | 67 to 69
C=CC1CC2=CC(=O)CCC2C2CCC3(CC)C(O)CCC3C12 (stereo unspecified) | 155 to 156
COc1cc(C)c(C=CC(C)=CC=CC(C)=CC(=O)NC(C)C)c(C)c1C | 200
C=CC(=O)OCCCCCCCCCCCOc1ccc(O)cc1 | 72 to 74
CSc1nc(Br)cc(Br)n1 | 82 to 84
COc1ccc(S(=O)(=O)C(C)(Cc2ccc(OCCCN3CCC(c4cccc(Cl)c4)CC3)cc2)C(=O)NO)cc1 (stereo unspecified) | 122
CN(C)CC1CCn2c(c(C3=C(c4csc5ccccc45)C(=O)NC3=O)c3ccccc32)C1 (stereo unspecified) | 285 to 286
CCn1c(=O)c2c(nc(/C=C/c3ccc(OC(=O)c4ccccc4)cc3)n2C)n(CC)c1=O | 208 to 209
N#Cc1ccc2c(c1)C(=C(Cl)Cl)OC(=C(Cl)Cl)O2 | 167 to 168
CC(=O)OCCCN(C)CCCN(C)C(=O)[C@@H]1CCCN1S(=O)(=O)c1ccc(Cl)c(COc2cccc3c(-n4ccnc4)cc(C)nc23)c1Cl | 90
CC(C)(C)c1cc(C(=O)NCc2ccc([N+](=O)[O-])cc2)cc(C(C)(C)C)c1O | 230 to 231
CCCn1c(CCOC)nc2c(N)nc3cc(OCCCN)ccc3c21 | 165 to 166
Cc1c2ccccc2c(C)c2cc3c(cc12)C(=O)OC3=O | 278
Clc1ccc(/C=C/c2cc(Cl)cc(Cl)c2)cc1 | 94 to 96
Nc1cccc(S(=O)(=O)Nc2nncs2)c1 | 155 to 158
CCC(C)(C)NCc1nc2sc3c(c2c(-c2ccc(OC)c(OC)c2)c1Cl)CCN(Cc1ccccc1)C3 | 128 to 129
O=c1[nH]cc(C(F)(F)F)cc1Br | 162 to 165
N#CC=C1CCN(c2ccc(N3C[C@@H](CN=[N+]=[N-])OC3=O)cc2F)CC1 | 112 to 114
O=CNCc1ccc(CN2CCN(c3ncccn3)CC2)cc1 | 97 to 98
CCCN(C(=O)COc1c(C)cccc1C)C1CCc2c(ccc(O)c2O)C1 (stereo unspecified) | 153 to 155
O=C(O)c1c(C(F)(F)F)nc2c(C(F)(F)F)cccc2c1O | 188
C=CCc1ccccc1OC(CC)C(=O)OC1CC(O)C=C2C=CC(C)C(CCC3CC(O)CC(=O)O3)C21 (mixture of isomers) | 143 to 145
c1ccc(-c2ccc(CN3Cc4cccn4Cc4ccccc43)cc2)cc1 | 135 to 137
O=C(NCc1ccc(Cl)cc1)c1cnc2ccc(CN3CCOCC3)cc2c1O | 219 to 220

Structure (SMILES) | melting point [°C]
CC(C)OCC1(C(F)(F)F)c2cc(C#N)ccc2Nc2ncc(C#N)cc21 (stereo unspecified) | 226 to 227
C=Cc1cnc2c(NC(=O)c3c(Cl)cccc3Cl)cccc2c1CCl | 184 to 186
Cc1cc(-c2cnn3c(C(F)(F)F)cc(-c4ccc(OCC(F)(F)F)c(C(F)(F)F)c4)nc23)ccn1 | 210
COc1ccc(NC(=O)c2ccncc2)c2c1oc1ccccc12 | 221
CCOC(=O)C(OCC)(OCC)C(=O)c1cccc2snnc12 | 123 to 125
CC(=O)Nc1ccc(NCC(=O)C23CC4CC(CC(C4)C2)C3)cc1 | 156 to 158
Cc1cccnc1C(=O)NC(C)(C)C | 56 to 58
Cc1nccc2[nH]c(=O)c(C(=O)NN)cc12 | > 310
CC(C)(C)Oc1ccc(CCC(=O)O)cc1 | 29 to 31
O=[N+]([O-])c1c(CO)cccc1CO | 100 to 101
CCCCc1nc(CCc2ccccc2)nn1Cc1ccc(-c2ccccc2-n2cnnn2)cc1 | 156 to 157
CCOc1cc(CCCN2CCc3cc(OC)c(OC)cc3C2)ccc1NC(=O)c1cccc2c(=O)c3cccc(F)c3[nH]c12 | 200
CCCn1c(=O)nc(SC)c2[nH]c(C3CCCC3)nc21 | 258 to 259
N#CN=C(NCCSCc1ccccn1)NCCSCc1ccccn1 | 78 to 80
O=C1CN(C(=O)CN2CC(c3ccc(Cl)cc3)CC2=O)CCN1 (stereo unspecified) | 205 to 207
CCCOc1ccc(C(=O)O)c(OCc2ccc(OCCc3nc(-c4ccccc4)oc3C)cc2)c1 | 108 to 109
CN1CCC(C(=O)Nc2ccc(CN(C)C3CCOCC3)cc2)=Cc2cc(-c3ccc(N4CCCCC4)cc3)ccc21 | 202 to 204
COc1ccc(N)cc1Oc1ncc(Cl)cc1Cl | 95 to 105
CCCCc1nc2c(N)nc3ccccc3c2n1CCS(C)(=O)=O | 226 to 228
CCCCc1nc(C(C)(C)O)c(C(=O)OCc2oc(=O)oc2C)n1Cc1ccc(-c2ccccc2C(=O)O)cc1 | > 70
O=C(N=P(c1ccccc1)(c1ccccc1)c1ccccc1)OCC1CC1 | 107 to 113
Cc1cc(C)cc(NC(=O)Cc2ccc(OC(C)(C)C(=O)O)cc2)c1 | 85
O=C(O)COc1c[nH]c(CCl)cc1=O | 150 to 155
